ChEMBL document CHEMBL1201862, “PubChem BioAssay data set” (2004)
Counter-ions that a name gives are not always drawn. Activity calls are given as the source filed them.

Columns and labels:
[1] = biological target: Polyadenylate-binding protein 1 (Homo sapiens, UniProt P11940); assay: PABP inhibition in translation initiation, SAR follow-up (AID 435018); type: functional
[2] = biological target: Eukaryotic translation initiation factor 4H (Homo sapiens, UniProt Q15056); assay: inhibitors of translation initiation factor eIF4H – SAR follow-up (AID 435011); type: functional
Cannabinoid receptor 1 [3] = biological target: T1, Cannabinoid receptor 1 (Homo sapiens, UniProt P21554); assay: SAR analysis of agonists of the Cannabinoid Receptor 1 using an Image-Based Assay - Set 3. [Related pubchem assays (depositor defined):AID1961, AID1965]; type: functional
Cannabinoid receptor 2 [4] = biological target: T2, Cannabinoid receptor 2 (Homo sapiens, UniProt P34972); assay: SAR analysis of antagonists of the Cannabinoid Receptor 2 using an Image-Based Assay - Set 2. [Related pubchem assays (depositor defined):AID1961, AID1965]; type: functional
Cannabinoid receptor 2 [5] = biological target: T2, Cannabinoid receptor 2; assay: SAR analysis of agonists of the Cannabinoid Receptor 2 using an Image-Based Assay - Set 2. [Related pubchem assays (depositor defined):AID1961, AID1965]; type: functional
[6] = biological target: T3, G-protein coupled receptor 35 (Homo sapiens, UniProt Q9HC97); assay: SAR analysis of Agonists of the GPR35 Receptor using an Image-Based Assay - Set 3. [Related pubchem assays (depositor defined):AID1961, AID1965]; type: functional
Cannabinoid receptor 1 [7] = biological target: T1, Cannabinoid receptor 1; assay: SAR analysis of antagonists of the Cannabinoid Receptor 1 using an Image-Based Assay - Set 3. [Related pubchem assays (depositor defined):AID1961, AID1965]; type: functional
[8] = biological target: T3, G-protein coupled receptor 35; assay: SAR analysis of Antagonists of the GPR35 Receptor using an Image-Based Assay - Set 4. [Related pubchem assays (depositor defined):[…]]; type: functional
[9] = biological target: G-protein coupled receptor 55 (Homo sapiens, UniProt Q9Y2T6); assay: SAR analysis of selective Agonists of GPR55 using an Image-Based Assay - Set 2. [Related pubchem assays (depositor defined):AID1961, AID1965]; type: functional
[10] = biological target: T4, Neuropeptides B/W receptor type 1 (Homo sapiens, UniProt P48145); assay: human NPBW1 receptor blockade, IC50 – cell-based, fluorescence, dose response, late-stage follow-up (AID 463251); type: functional
T4 sequence (P48145 whole entry): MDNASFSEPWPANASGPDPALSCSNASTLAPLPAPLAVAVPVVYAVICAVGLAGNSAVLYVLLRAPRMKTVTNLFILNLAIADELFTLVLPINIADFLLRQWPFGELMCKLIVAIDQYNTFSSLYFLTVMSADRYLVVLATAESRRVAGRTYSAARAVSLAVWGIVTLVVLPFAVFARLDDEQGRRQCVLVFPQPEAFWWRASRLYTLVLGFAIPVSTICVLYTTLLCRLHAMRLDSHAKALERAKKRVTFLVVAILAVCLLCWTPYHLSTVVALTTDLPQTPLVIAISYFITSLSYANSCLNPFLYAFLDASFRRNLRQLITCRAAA

[11] = biological target: Melanin-concentrating hormone receptor 1 (Homo sapiens, UniProt Q99705); assay: Late-stage fluorescence-based counterscreen for antagonists of the G-protein coupled receptor 7 (GPR7): cell-based dose response assay to identify antagonists of the melanin-concentrating hormone receptor 1 (MCHR1). [Related pubchem assays (depositor defined):AID1861, AID1880, AID1952, AID2148, AID2251, AID2257, AID485339]; type: functional;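 further: stimulated with 30 nM MCH peptide agonist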
[12] = NIH/3T3 cell viability loss – mouse embryonic fibroblasts, dry powder, set 2, cytotoxicity control, dose response (AID 493247); type: functional, cell-based; settings: Fibroblast
Trypanosoma cruzi = assay: anti-trypanosomal activity in host cells – cell-based, plate reader, dry powder, set 3, dose response (AID 493197); type: functional
[13] = biological target: 5-hydroxytryptamine receptor 1A (Homo sapiens, UniProt P08908); type: functional
[14] = biological target: T5, Short transient receptor potential channel 4 (Mus musculus, UniProt Q9QUQ5); assay: potentiation of DAMGO-evoked TRPC4 calcium signal – cell-based, HEK293 TRPC4/mu-opioid, Fluo-4 calcium, EC20 DAMGO, dose response (AID 434941); type: functional
T5 sequence (Q9QUQ5 whole entry): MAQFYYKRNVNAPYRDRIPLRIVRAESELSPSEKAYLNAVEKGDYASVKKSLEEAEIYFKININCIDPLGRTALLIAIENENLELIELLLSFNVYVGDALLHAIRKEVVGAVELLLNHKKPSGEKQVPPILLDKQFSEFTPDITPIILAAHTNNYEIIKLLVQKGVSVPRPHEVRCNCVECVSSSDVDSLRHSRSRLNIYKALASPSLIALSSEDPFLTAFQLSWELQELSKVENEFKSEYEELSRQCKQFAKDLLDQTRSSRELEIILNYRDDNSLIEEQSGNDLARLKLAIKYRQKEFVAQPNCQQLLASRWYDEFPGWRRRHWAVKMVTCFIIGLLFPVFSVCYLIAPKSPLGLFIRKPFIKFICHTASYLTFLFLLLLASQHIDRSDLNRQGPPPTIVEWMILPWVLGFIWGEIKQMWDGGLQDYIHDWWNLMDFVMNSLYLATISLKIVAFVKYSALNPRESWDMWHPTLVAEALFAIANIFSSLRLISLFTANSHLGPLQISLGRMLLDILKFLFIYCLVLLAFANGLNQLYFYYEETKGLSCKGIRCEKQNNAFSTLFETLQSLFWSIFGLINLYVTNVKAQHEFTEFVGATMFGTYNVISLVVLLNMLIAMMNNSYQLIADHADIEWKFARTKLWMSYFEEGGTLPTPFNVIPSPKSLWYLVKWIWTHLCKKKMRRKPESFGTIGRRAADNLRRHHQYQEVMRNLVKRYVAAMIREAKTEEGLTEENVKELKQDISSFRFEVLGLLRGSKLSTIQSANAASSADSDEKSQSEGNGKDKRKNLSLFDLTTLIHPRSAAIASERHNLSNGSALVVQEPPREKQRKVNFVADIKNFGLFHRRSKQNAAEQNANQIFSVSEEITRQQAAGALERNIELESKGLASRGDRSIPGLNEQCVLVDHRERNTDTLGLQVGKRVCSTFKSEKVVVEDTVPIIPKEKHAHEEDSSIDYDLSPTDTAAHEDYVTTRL

T1 sequence (P21554 whole entry): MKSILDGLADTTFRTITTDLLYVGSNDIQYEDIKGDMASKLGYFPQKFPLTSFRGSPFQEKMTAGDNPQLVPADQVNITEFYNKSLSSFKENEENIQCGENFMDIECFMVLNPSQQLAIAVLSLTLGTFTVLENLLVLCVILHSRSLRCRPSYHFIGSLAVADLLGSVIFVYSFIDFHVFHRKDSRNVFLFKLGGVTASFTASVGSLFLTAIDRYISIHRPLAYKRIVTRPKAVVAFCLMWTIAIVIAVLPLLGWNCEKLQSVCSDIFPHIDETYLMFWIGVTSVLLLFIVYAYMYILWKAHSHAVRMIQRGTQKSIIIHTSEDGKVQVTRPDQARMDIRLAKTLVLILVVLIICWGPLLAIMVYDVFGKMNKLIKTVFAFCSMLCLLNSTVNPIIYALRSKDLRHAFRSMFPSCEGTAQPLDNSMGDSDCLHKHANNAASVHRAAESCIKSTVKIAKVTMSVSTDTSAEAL
T2 sequence (P34972 whole entry): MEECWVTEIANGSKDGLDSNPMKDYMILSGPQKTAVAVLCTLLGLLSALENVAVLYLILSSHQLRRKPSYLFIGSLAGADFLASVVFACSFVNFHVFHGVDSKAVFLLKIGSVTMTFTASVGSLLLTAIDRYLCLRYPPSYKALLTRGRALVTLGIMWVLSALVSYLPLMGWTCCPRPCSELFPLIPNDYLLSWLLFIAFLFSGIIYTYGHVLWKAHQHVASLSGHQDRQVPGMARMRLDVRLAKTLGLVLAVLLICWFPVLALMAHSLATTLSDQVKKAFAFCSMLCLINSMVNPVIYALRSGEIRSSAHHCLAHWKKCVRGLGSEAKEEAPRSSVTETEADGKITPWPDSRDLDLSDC
T3 sequence (Q9HC97 whole entry): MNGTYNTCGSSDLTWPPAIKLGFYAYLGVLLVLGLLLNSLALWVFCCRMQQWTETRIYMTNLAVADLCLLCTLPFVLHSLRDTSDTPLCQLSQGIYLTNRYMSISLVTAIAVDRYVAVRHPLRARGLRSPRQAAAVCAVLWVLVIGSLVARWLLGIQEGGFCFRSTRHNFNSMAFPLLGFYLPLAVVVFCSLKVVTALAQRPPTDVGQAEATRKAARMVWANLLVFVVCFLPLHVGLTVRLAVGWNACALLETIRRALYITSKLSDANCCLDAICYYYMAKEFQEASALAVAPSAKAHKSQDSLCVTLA
Chain of 5-hydroxytryptamine receptor 1A (P08908 whole entry): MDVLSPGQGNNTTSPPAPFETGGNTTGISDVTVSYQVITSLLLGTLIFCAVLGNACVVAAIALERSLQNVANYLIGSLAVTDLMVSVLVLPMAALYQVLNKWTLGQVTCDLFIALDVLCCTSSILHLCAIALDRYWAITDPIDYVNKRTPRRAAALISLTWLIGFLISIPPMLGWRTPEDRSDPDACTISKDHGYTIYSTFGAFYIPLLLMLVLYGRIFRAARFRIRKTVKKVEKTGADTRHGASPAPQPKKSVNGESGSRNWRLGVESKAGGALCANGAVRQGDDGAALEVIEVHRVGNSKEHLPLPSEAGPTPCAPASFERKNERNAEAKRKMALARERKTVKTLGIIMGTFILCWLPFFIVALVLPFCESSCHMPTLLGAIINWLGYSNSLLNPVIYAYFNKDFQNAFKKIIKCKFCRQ
Chain of Polyadenylate-binding protein 1 (P11940 whole entry): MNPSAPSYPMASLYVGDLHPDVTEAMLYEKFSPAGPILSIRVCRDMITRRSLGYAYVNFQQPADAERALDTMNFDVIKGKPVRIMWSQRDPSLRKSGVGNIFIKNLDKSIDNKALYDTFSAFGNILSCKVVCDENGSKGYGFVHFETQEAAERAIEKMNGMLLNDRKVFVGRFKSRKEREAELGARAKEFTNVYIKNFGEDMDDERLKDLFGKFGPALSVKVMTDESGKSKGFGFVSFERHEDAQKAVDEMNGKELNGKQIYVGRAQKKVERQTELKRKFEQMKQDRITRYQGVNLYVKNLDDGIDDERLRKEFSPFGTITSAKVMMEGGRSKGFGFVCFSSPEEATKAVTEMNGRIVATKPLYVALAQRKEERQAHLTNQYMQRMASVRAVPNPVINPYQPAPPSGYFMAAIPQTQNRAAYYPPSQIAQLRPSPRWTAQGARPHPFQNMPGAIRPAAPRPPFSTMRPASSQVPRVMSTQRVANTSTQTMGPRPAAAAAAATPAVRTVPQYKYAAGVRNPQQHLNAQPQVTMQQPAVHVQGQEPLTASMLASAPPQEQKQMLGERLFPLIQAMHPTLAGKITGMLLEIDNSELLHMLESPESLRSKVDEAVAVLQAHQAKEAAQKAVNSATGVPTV
Chain of Melanin-concentrating hormone receptor 1 (Q99705 whole entry): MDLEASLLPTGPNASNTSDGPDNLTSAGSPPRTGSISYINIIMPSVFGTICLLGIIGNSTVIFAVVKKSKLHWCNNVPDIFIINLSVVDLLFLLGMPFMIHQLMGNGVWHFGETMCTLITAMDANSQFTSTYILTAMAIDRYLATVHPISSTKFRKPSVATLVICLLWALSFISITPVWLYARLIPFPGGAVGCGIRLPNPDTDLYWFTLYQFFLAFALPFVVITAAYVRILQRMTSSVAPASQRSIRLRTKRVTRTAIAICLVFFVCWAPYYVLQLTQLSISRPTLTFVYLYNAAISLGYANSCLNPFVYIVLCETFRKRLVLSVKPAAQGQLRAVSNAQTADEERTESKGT
Chain of G-protein coupled receptor 55 (Q9Y2T6 whole entry): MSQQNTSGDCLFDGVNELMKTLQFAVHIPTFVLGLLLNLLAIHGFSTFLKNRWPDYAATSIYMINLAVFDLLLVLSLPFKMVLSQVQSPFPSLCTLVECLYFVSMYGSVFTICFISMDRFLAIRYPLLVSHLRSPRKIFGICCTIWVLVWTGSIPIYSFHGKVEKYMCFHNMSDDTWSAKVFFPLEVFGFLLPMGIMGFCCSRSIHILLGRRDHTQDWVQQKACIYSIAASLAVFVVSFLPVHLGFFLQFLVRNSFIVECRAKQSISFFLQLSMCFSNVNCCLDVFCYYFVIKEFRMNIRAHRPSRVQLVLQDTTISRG

COc1ccc([N+](=O)[O-])cc1NC(=O)COC(=O)c1ccccc1C(=O)c1ccccc1
IC50 [1]: > 100 µM (inactive) | IC50 [2]: > 100 µM (inactive)

COc1ccc(-c2csc(NC(=O)CSc3nnc4c(C)cc5cc6c(cc5n34)OCO6)n2)cc1
EC50 (Cannabinoid receptor 1 [3]): > 32 µM (inactive) | IC50 (Cannabinoid receptor 2 [4]): > 32 µM (inactive) | EC50 (Cannabinoid receptor 2 [5]): > 32 µM (inactive) | EC50 [6]: > 32 µM (inactive) | IC50 (Cannabinoid receptor 1 [7]): > 32 µM (inactive) | IC50 [8]: > 32 µM (inactive) | EC50 [9]: > 32 µM (inactive)

CC(C)c1ccc(-n2ncc(Cl)c(Oc3cccc(N(C)C)c3)c2=O)cc1
IC50 [10]: 1.6 µM (active) | IC50 [11]: 3.1 µM (active)

O=C(Cc1cccnc1)N/N=C/c1ccc([N+](=O)[O-])o1
AC50 [12]: 23.1 µM (active) | AC50 (Trypanosoma cruzi): 0.131 µM (active)

Cc1cc(C(C)(C)C)c(O)c(C)c1CC1=NCCN1 [OXYMETAZOLINE HYDROCHLORIDE]
EC50 [13]: 0.07 µM (active) | EC50 [14]: 3.35 µM (active)
